Source: ChEMBL document CHEMBL1145332, “Design of inhibitors of orotidine monophosphate decarboxylase using bioisosteric replacement and determination of inhibition kinetics” (J Med Chem, 2006)

Target: T1, Orotidine 5'-phosphate decarboxylase (Saccharomyces cerevisiae S288c, UniProt P03962)
T1 sequence (P03962 whole entry): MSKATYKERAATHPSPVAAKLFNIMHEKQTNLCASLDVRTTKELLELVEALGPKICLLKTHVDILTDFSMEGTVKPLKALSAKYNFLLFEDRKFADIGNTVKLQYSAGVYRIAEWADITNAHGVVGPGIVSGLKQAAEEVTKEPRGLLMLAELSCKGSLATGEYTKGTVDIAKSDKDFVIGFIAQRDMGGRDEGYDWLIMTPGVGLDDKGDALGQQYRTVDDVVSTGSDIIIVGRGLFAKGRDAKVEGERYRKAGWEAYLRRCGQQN
Assay: Inhibition of Saccharomyces cerevisiae ODCase at 25 degreeC by competitive binding assay

O=c1cnn([C@@H]2O[C@H](COP(=O)(O)O)[C@@H](O)[C@H]2O)c(=O)[nH]1 [6-AZA-URIDINE MONOPHOSPHATE]
Ki: 64 nM
